According to publication PMC12250302, “Synthesis, Antimicrobial Activities, and Model of Action of Novel Tetralone Derivatives Containing Aminoguanidinium Moiety” (International Journal of Molecular Sciences, 2025):
In brackets after ≈: the same amount, converted by molar mass. Where two headings read alike, the source gives them in different places.

Tests used:
Test in all cases: MIC and MBC testing, broth microdilution
[1] = system: S. aureus ATCC 29213; type: cell-based, Staphylococcus aureus; conditions: S. aureus ATCC 29213; for MIC: 18 h
Text: (§1) The minimum inhibitory concentrations (MICs) and minimum bactericidal concentrations (MBCs) of the synthesized compounds effective against ESKAPE strains, S. aureus clinical isolates, and MRSA were investigated by the broth dilution method. Levofloxacin is a broad-spectrum antibacterial agent that is widely used in the treatment of ESKAPE infections. Therefore, levofloxacin was selected as the positive control for the preliminary activity screening. DMSO (0.1%) was selected as the negative control.
(§2) The minimum inhibitory concentration (MIC) of all synthesized compounds was tested by the broth microdilution method. In brief, compounds dissolved in DMSO were diluted twice continuously in a 96-well plate with MH broth. The ESKAPE pathogens (E. coli ATCC 25922, S. aureus ATCC 29213, K. pneumoniae ATCC 700603, A. baumannii ATCC 19606, P. aeruginosa ATCC 27853, and E. faecium ATCC 35667), clinical S. aureus isolates (LMY45, LMY46, LMY47, and LMY48) and methicillin-resistant Staphylococcus aureus (MRSA-1 and MRSA-2) were cultured in MH broth to logarithmic growth phase and then diluted to 1 × 10^6 CFU/mL in MH broth. Subsequently, the diluted bacterial solution was mixed with the diluted compound solution in a 96-well plate and incubated at 37 °C for a duration of 18 h. The MIC of the compounds was recorded as the lowest concentration at which no visible growth was observed. […] Each concentration was replicated thrice.

[2] = system: E. faecium ATCC 35667; type: cell-based, Enterococcus faecium; conditions: E. faecium ATCC 35667; for MIC: 18 h
Text: as §1, §2

[3] = system: A. baumannii ATCC 19606; type: cell-based, Acinetobacter baumannii
Text: as §1, §2

[4] = system: E. coli ATCC 25922; type: cell-based, Escherichia coli
Text: as §1, §2

[5] = system: MRSA-2; type: cell-based, Staphylococcus aureus; conditions: MRSA-2; for MIC: 18 h
Description: (§3) Furthermore, the MBC values of the compounds were detected.
as §2, with “h.” for “h. The MIC of the compounds was recorded as the lowest concentration at which no visible growth was observed.”

[6] = system: clinical S. aureus isolate LMY47; type: cell-based, Staphylococcus aureus; conditions: LMY47; for MIC: 18 h
Description: as §3
as §2, with “h.” for “h. The MIC of the compounds was recorded as the lowest concentration at which no visible growth was observed.”

[7] = system: clinical S. aureus isolate LMY45; type: cell-based, Staphylococcus aureus; conditions: LMY45; for MIC: 18 h
Description: as §3
as §2, with “h.” for “h. The MIC of the compounds was recorded as the lowest concentration at which no visible growth was observed.”

[8] = system: clinical S. aureus isolate LMY46; type: cell-based, Staphylococcus aureus; conditions: LMY46; for MIC: 18 h
Description: as §3
as §2, with “h.” for “h. The MIC of the compounds was recorded as the lowest concentration at which no visible growth was observed.”

[9] = system: clinical S. aureus isolate LMY48; type: cell-based, Staphylococcus aureus; conditions: LMY48; for MIC: 18 h
Description: as §3
as §2, with “h.” for “h. The MIC of the compounds was recorded as the lowest concentration at which no visible growth was observed.”

[10] = system: MRSA-1; type: cell-based, Staphylococcus aureus; conditions: MRSA-1; for MIC: 18 h
Description: as §3
as §2, with “h.” for “h. The MIC of the compounds was recorded as the lowest concentration at which no visible growth was observed.”

[11] = system: K. pneumoniae ATCC 700603; type: cell-based, Klebsiella pneumoniae; conditions: Klebsiella pneumoniae; for MIC: ATCC700603, 18 h, read-out: MIC
Text: as §1, §2

[12] = system: P. aeruginosa ATCC 27853; type: cell-based, Pseudomonas aeruginosa
Text: as §1, §2

[13] = Staphylococcus aureus, ATCC29213, read-out: MIC
[14] = Enterococcus faecium, ATCC35667, read-out: MIC
[15] = Enterococcus faecium, ATCC35667, read-out: MBC
[16] = Acinetobacter baumannii, ATCC19606, 18 h, read-out: MIC
[17] = Escherichia coli, ATCC25922, 18 h, read-out: MIC
[18] = Staphylococcus aureus, read-out: MIC
[19] = Staphylococcus aureus, read-out: MBC
[20] = Pseudomonas aeruginosa, ATCC27853, 18 h, read-out: MIC
[21] = Staphylococcus aureus, ATCC29213, read-out: MBC
[22] = Acinetobacter baumannii, ATCC19606, read-out: MBC
[23] = Escherichia coli, ATCC25922, read-out: MBC

[H]/N=C(\N)NN=C1CCCc2cc(OCc3cc(C(F)(F)F)cc(C(F)(F)F)c3)ccc21 [Compound 1K, (E)-2-(6-((3,5-bis(trifluoromethyl)benzyl)oxy)-3,4-dihydronaphthalen-1(2H)-ylidene)hydrazine-1-carboximidamide]
MIC [1, 13]: 32 µg/mL (≈ 72 µM) | MIC [2, 14]: 4 µg/mL (≈ 9 µM) | MBC [2, 15]: 16 µg/mL (≈ 36 µM) | MIC [3, 16]: > 32 µg/mL | MIC [4, 17]: > 32 µg/mL | MIC [5, 18]: 8 µg/mL (≈ 18 µM) | MBC [5, 19]: 32 µg/mL (≈ 72 µM) | MIC [6, 18]: 4 µg/mL (≈ 9 µM) | MBC [6, 19]: 8 µg/mL (≈ 18 µM) | MIC [7, 18]: 4 µg/mL (≈ 9 µM) | MBC [7, 19]: 16 µg/mL (≈ 36 µM) | MIC [8, 18]: 4 µg/mL (≈ 9 µM) | MBC [8, 19]: > 32 µg/mL | MIC [9, 18]: 4 µg/mL (≈ 9 µM) | MBC [9, 19]: 8 µg/mL (≈ 18 µM) | MIC [10, 18]: 16 µg/mL (≈ 36 µM) | MIC [11]: > 32 µg/mL | MIC [12, 20]: > 32 µg/mL

(E)-2-(6-(4-isopropylphenoxy)-3,4-dihydronaphthalen-1(2H)-ylidene)hydrazine-1-carboximidamide [Compound 1X]
MBC [1]: 4 µg/mL | MIC [1]: 2 µg/mL | MBC [2]: 4 µg/mL | MIC [2]: 2 µg/mL | MBC [3]: 8 µg/mL | MIC ([3]; 18 h): 4 µg/mL | MBC [4]: 8 µg/mL | MIC ([4]; 18 h): 4 µg/mL | MBC [5]: 4 µg/mL | MIC [5]: 1 µg/mL | MBC [6]: 8 µg/mL | MIC [6]: 2 µg/mL | MBC [7]: 4 µg/mL | MIC [7]: 2 µg/mL | MBC [8]: 2 µg/mL | MIC [8]: 2 µg/mL | MBC [9]: 8 µg/mL | MIC [9]: 2 µg/mL | MBC [10]: 8 µg/mL | MIC [10]: 4 µg/mL | MBC [12]: > 32 µg/mL | MIC ([12]; 18 h): 32 µg/mL

[H]/N=C(\N)NN=C1CCCc2cc(OCc3cccc(-c4ccccc4)c3)ccc21 [Compound 1W, (E)-2-(6-([1,1’-biphenyl]-3-ylmethoxy)-3,4-dihydronaphthalen-1(2H)-ylidene)hydrazine-1-carboximidamide]
MIC [1, 13]: 2 µg/mL (≈ 5.2 µM) | MBC [1, 21]: 16 µg/mL (≈ 41.6 µM) | MIC [2, 14]: 2 µg/mL (≈ 5.2 µM) | MBC [2, 15]: 16 µg/mL (≈ 41.6 µM) | MIC [3, 16]: 32 µg/mL (≈ 83.2 µM) | MBC [3, 22]: 32 µg/mL (≈ 83.2 µM) | MIC [4, 17]: 32 µg/mL (≈ 83.2 µM) | MBC [4, 23]: 32 µg/mL (≈ 83.2 µM) | MIC [5, 18]: 2 µg/mL (≈ 5.2 µM) | MBC [5, 19]: 4 µg/mL (≈ 10.4 µM) | MIC [6, 18]: 2 µg/mL (≈ 5.2 µM) | MBC [6, 19]: 8 µg/mL (≈ 20.8 µM) | MIC [7, 18]: 2 µg/mL (≈ 5.2 µM) | MBC [7, 19]: 8 µg/mL (≈ 20.8 µM) | MIC [8, 18]: 2 µg/mL (≈ 5.2 µM) | MBC [8, 19]: 8 µg/mL (≈ 20.8 µM) | MIC [9, 18]: 2 µg/mL (≈ 5.2 µM) | MBC [9, 19]: 4 µg/mL (≈ 10.4 µM) | MIC [10, 18]: 4 µg/mL (≈ 10.4 µM) | MBC [10, 19]: 32 µg/mL (≈ 83.2 µM) | MIC [11]: > 32 µg/mL | MIC [12, 20]: > 32 µg/mL

C[C@H]1COc2c(N3CCN(C)CC3)c(F)cc3c(=O)c(C(=O)O)cn1c23 [Levofloxacin, reference compound]
MIC [1, 13]: ≤ 1 µg/mL | MBC [1, 21]: ≤ 1 µg/mL | MIC [2, 14]: ≤ 1 µg/mL | MBC [2, 15]: 2 µg/mL (≈ 5.53 µM) | MIC [3, 16]: ≤ 1 µg/mL | MBC [3, 22]: 2 µg/mL (≈ 5.53 µM) | MIC [4, 17]: ≤ 1 µg/mL | MBC [4, 23]: ≤ 1 µg/mL | MIC [11]: ≤ 1 µg/mL | MBC ([11]; ATCC700603, read-out: MBC): 4 µg/mL (≈ 11.1 µM) | MIC [12, 20]: ≤ 1 µg/mL | MBC ([12]; Pseudomonas aeruginosa, ATCC27853, read-out: MBC): 2 µg/mL (≈ 5.53 µM)
